For three molecules, IC50 results are on record in BindingDB's records for patent US10213407 (The Procter & Gamble, 2019).

Each structure is given as a SMILES string.

The IC50 is the concentration that gives 50% inhibition.

This test deals with T1, Carnitine monooxygenase oxygenase/reductase subunit (Escherichia coli (strain K12), UniProt P0ABR7+P76254).
T1 sequence (P0ABR7 whole entry): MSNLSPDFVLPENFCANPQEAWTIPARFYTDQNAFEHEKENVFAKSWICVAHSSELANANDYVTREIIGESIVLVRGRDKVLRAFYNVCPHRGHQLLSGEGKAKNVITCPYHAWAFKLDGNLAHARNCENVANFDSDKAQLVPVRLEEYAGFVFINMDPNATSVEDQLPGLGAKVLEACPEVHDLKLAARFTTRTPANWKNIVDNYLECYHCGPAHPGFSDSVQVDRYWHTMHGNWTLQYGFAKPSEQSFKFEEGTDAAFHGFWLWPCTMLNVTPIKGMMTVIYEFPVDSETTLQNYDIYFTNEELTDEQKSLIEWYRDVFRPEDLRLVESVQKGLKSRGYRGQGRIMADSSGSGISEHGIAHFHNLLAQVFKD
T1 sequence (P76254 whole entry): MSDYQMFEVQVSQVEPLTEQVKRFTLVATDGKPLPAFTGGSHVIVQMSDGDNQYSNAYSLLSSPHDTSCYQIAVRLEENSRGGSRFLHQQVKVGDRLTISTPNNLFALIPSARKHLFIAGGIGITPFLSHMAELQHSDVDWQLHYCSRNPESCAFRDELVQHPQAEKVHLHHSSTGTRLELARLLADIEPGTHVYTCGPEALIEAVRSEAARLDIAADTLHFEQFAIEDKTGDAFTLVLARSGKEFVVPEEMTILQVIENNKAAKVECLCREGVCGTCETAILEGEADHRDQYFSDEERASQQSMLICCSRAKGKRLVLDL
Kind of test: BCA Protein Assay. The text has this:
Escherichia coli BL21*DE3 pET30a-Ec yeaWX #1 (Ec YeaWX) strain was generated as described below. The contiguous Escherichia coli coding sequence yeaW (equivalent to uniprot ID P0ABR7.1 (YeaW) (SEQ ID NO: 2)) and yeaX (equivalent to uniprot ID P76254.1 (YeaX) (SEQ ID NO: 3)) were PCR amplified from Escherichia coli strain K-12 substr. BW25113 genomic DNA. PCR primers (YeaW_Nde I_fwd2-SEQ ID NO: 4; YeaX_rev2-SEQ ID NO: 5) were designed to create a 5′ NdeI restriction site including the ATG start codon of yeaW and create a PstI restriction site just 3′ of the yeaX TAG stop codon.The bacteria were grown aerobically in 50 mL LB broth (Difco #244620; 10 g/L Tryptone, 5 g/L yeast extract, 10 g/L NaCl, 50 μg/mL kanamycin), in a 500 mL Erlenmeyer flask. The cultures were inoculated from glycerol stock of BL21*DE3 pET30a-Ec yeaWX #1 strain. Strains were cultured all day at 37° C. with 250 rpm shaking. Two 300 mL Minimal M9 Medium (6 g/L Na2HPO4, 3 g/L KH2PO4, 0.5 g/L NaCl, 1 g/L NH4Cl, 0.1 mM CaCl2, 1 mM MgSO4, 0.2% Dextrose, 1 mg/L Thiamine, 50 μg/mL kanamycin), in 1 L Erlenmeyer flasks, were inoculated with 5 mL of the LB broth day culture and cultured overnight at 37° C. with 250 rpm shaking. The overnight cultures were used to inoculate twelve 1 L cultures of Minimal M9 media in 2.8 L fluted Erlenmeyer flasks to an OD 600 nm of 0.05 (typically approximately 28 mLs), which were grown at 37° C. with 250 rpm shaking until an OD600 of approximately 0.4 was reached. Expression of YeaWX was induced with 1 mM IPTG and the induced cultures were further grown overnight at 37° C. with 250 rpm shaking. The biomass was pelleted by centrifugation at 6000×g for 12 minutes at 4° C. The cell pellet was suspended in 240 mL of ice-cold 1× Phosphate Buffered Saline (Ca2+ and Mg2+ free). […] Glycerol was added to the centrifuged lysate supernatant at a final concentration of 15% A protein concentration of the centrifuged lysate supernatant was determined by a BCA Protein Assay Kit (Pierce #23225), typically in the 2.5 to 4.5 mg/ml range. […]
Take `CCOC(=O)C[N+](CC)(CC)CCCN=C=S` [US10213407, ID 3]: the IC50 was 220 µM. As for `CCOC(=O)C[N+](C)(C)CCN=C=S` [US10213407, ID 4], the IC50 was found to be 300 µM. With `C[N+](C)(CC#N)CCN=C=S` [US10213407, ID 8] the figure was 210 µM.
